In patent publication US20260184663A1, “INDENE COMPOUNDS, PHARMACEUTICAL COMPOSITIONS THEREOF, AND THEIR THERAPEUTIC APPLICATIONS” (NucMito Pharmaceuticals co. Ltd., priority 2022, published 2026):
Where two headings read alike, the source gives them in different places.

Tests used:
Assay type in all cases: cell-based
[1] = test system: MDA-MB-231 (breast cancer); assay: Antiproliferative activity (CCK-8 cell viability), MDA-MB-231; conditions: Homo sapiens, 72 h; for inhibition at 3.3 µM: Compound concentration: 3.3 μM; for inhibition at 10 µM: Compound concentration: 10 μM; for inhibition at 30 µM: Compound concentration: 30 μM
Outline: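 In this CCK-8 viability assay, MDA-MB-231 cells maintained in Dulbecco's modified Eagle's medium containing 10% fetal bovine serum were placed in 96-well plates (2,000-5,000 cells/well) and treated with compound for 72 h at 37° C. A 4 h incubation with 10 μL CCK-8 followed, plates were read at 450 nm, and viability was expressed against DMSO vehicle wells across replicates.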

HepG2 (liver cancer) = assay: Antiproliferative activity (CCK-8 cell viability), HepG2; conditions: Homo sapiens, 72 h, read-out: Antiproliferative activity in cancerous cells, HepG2 (inhibition of cell growth); for inhibition at 3.3 µM: Compound concentration: 3.3 μM; for inhibition at 10 µM: Compound concentration: 10 μM; for inhibition at 30 µM: Compound concentration: 30 μM
Outline: (§1)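 Cells were seeded at 2,000-5,000/well (HeLa in MEM, HepG2 and SW480 in DMEM, A549 in F-12K, all with 10% FBS) and treated with compound at 3.3, 10 or 30 μM for 72 h at 37° C. CCK-8 was added for 4 h, absorbance was read at 450 nm, and viability was expressed relative to DMSO-treated wells.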

SW480 (colon cancer) = assay: Antiproliferative activity (CCK-8 cell viability), SW480; conditions: Homo sapiens, 72 h; for inhibition at 3.3 µM: Compound concentration: 3.3 μM; for inhibition at 10 µM: Compound concentration: 10 μM; for inhibition at 30 µM: Compound concentration: 30 μM
Outline: as §1

[2] = test system: B16F10 (malignant melanoma); assay: Antiproliferative activity (CCK-8 cell viability), B16F10; conditions: Mus musculus, 72 h, read-out: Antiproliferative activity in cancerous cells, B16F10 (inhibition of cell growth); for inhibition at 3.3 µM: B16-F10, Compound concentration: 3.3 μM; for inhibition at 10 µM: B16-F10, Compound concentration: 10 μM; for inhibition at 30 µM: B16-F10, Compound concentration: 30 μM
Outline: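 Attached B16F10 cells in 96-well plates were incubated with compound at 37° C for 72 h, followed by 10 μL CCK-8 reagent per well and a further 4 h incubation. A multi-well plate reader measured absorbance at 450 nm. Percent viability across replicates was calculated against DMSO vehicle-treated cells.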

[3] = test system: A431 (epidermoid carcinoma); assay: Antiproliferative activity (CCK-8 cell viability), A431; conditions: Homo sapiens, 72 h, read-out: Antiproliferative activity in cancerous cells, A431 (inhibition of cell growth); for inhibition at 3.3 µM: A-431, Compound concentration: 3.3 μM; for inhibition at 10 µM: A-431, Compound concentration: 10 μM; for inhibition at 30 µM: A-431, Compound concentration: 30 μM
Outline: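 Cell viability of compound-treated A431 cells was measured with a Cell Counting Kit-8. Each well received 10 μL of CCK-8 after 72 h of compound exposure, followed by 4 h incubation at 37° C. and a 450 nm plate-reader measurement. Percent viability was calculated relative to DMSO controls across replicates.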

[4] = test system: A549 (lung adenocarcinoma); assay: Antiproliferative activity (CCK-8 cell viability), A549; conditions: Homo sapiens, 72 h; for inhibition at 3.3 µM: Compound concentration: 3.3 μM; for inhibition at 10 µM: Compound concentration: 10 μM; for inhibition at 30 µM: Compound concentration: 30 μM
Outline: as §1

HeLa (cervical cancer) = assay: Antiproliferative activity (CCK-8 cell viability), HeLa; conditions: Homo sapiens, 72 h, read-out: Antiproliferative activity in cancerous cells, HELA (inhibition of cell growth); for inhibition at 3.3 µM: Compound concentration: 3.3 μM; for inhibition at 10 µM: Compound concentration: 10 μM; for inhibition at 30 µM: Compound concentration: 30 μM
Outline: as §1

[5] = read-out: Antiproliferative activity in cancerous cells, MDA-MB-231 (inhibition of cell growth)
[6] = read-out: Antiproliferative activity in cancerous cells, SW480 (inhibition of cell growth)
[7] = read-out: Antiproliferative activity in cancerous cells, SW480
[8] = read-out: Antiproliferative activity in cancerous cells, A549 (inhibition of cell growth)

| Structure (SMILES) | inhibition at 3.3 µM [1, 5] [%] | inhibition at 10 µM [1, 5] [%] | inhibition at 3.3 µM (HepG2 (liver cancer)) [%] | inhibition at 10 µM (HepG2 (liver cancer)) [%] | inhibition at 3.3 µM (SW480 (colon cancer); [6]) [%] | inhibition at 10 µM (SW480 (colon cancer); [6]) [%] | inhibition at 3.3 µM [2] [%] | inhibition at 10 µM [2] [%] | inhibition at 3.3 µM [3] [%] | inhibition at 10 µM [3] [%] | inhibition at 3.3 µM [4, 8] [%] | inhibition at 10 µM [4, 8] [%] | inhibition at 3.3 µM (HeLa (cervical cancer)) [%] | inhibition at 10 µM (HeLa (cervical cancer)) [%] | also measured |
| --- | --- | --- | --- | --- | --- | --- | --- | --- | --- | --- | --- | --- | --- | --- | --- |
| CC1=C(CC(=O)O)c2cc(F)ccc2/C1=C\c1ccc(CCc2ccc(F)cc2)cc1 [B145, (Z)-2-(5-Fluoro-1-(4-(4-fluorophenethyl)benzylidene)-2-methyl-1H-inden-3-yl)acetic acid] | < 30 | < 30 | < 30 | ≥ 50 | < 30 | < 30 | < 30 | < 30 | ≥ 50 | ≥ 50 | < 30 | < 30 | 30 to 50 | ≥ 50 | inhibition at 30 µM (SW480 (colon cancer); [7]): 30 to 50% |
| COc1ccc(CCCc2ccc(/C=C3/C(C)=C(CC(=O)O)c4cc(Br)ccc43)cc2)cc1 [B128, (Z)-2-(5-Bromo-1-(4-(3-(4-methoxyphenyl)propyl)benzylidene)-2-methyl-1H-inden-3-yl)acetic acid] | ≥ 50 | ≥ 50 | ≥ 50 | ≥ 50 | ≥ 50 | ≥ 50 | ≥ 50 | ≥ 50 | ≥ 50 | ≥ 50 | ≥ 50 | ≥ 50 | ≥ 50 | ≥ 50 |  |
| CC1=C(CC(=O)O)c2cc(F)ccc2/C1=C\c1ccc(Oc2ccc(F)c(Cl)c2)cc1 [C54, (Z)-2-(1-(4-(3-Chloro-4-fluorophenoxy)benzylidene)-5-fluoro-2-methyl-1H-inden-3-yl)acetic acid] | < 30 | ≥ 50 | < 30 | 30 to 50 | < 30 | ≥ 50 | ≥ 50 | ≥ 50 | ≥ 50 | ≥ 50 | < 30 | < 30 | < 30 | ≥ 50 | inhibition at 30 µM ([4]; read-out: Antiproliferative activity in cancerous cells, A549): < 30% |
| CC1=C(CC(=O)O)c2cc(F)ccc2/C1=C/c1ccc(Oc2ccc(Cl)cc2)cc1 [E42, (E)-2-(1-(4-(4-Chlorophenoxy)benzylidene)-5-fluoro-2-methyl-1H-inden-3-yl)acetic acid] | < 30 | < 30 | < 30 | 30 to 50 | 30 to 50 | ≥ 50 | < 30 | 30 to 50 | ≥ 50 | ≥ 50 | < 30 | 30 to 50 | 30 to 50 | ≥ 50 | inhibition at 30 µM [1, 5]: ≥ 50%; inhibition at 30 µM (HepG2 (liver cancer)): ≥ 50%; inhibition at 30 µM (SW480 (colon cancer); [6]): ≥ 50%; inhibition at 30 µM [2]: ≥ 50%; inhibition at 30 µM [3]: ≥ 50%; inhibition at 30 µM [4, 8]: ≥ 50%; inhibition at 30 µM (HeLa (cervical cancer)): ≥ 50% |
| CC1=C(CC(=O)O)c2cc(F)ccc2/C1=C\c1cccc(C2(c3ccccc3)SCCS2)c1 [C352, (Z)-2-(5-Fluoro-2-methyl-1-(3-(2-phenyl-1,3-dithiolan-2-yl)benzylidene)-1H-inden-3-yl)acetic acid] | 30 to 50 | ≥ 50 | < 30 | ≥ 50 | < 30 | ≥ 50 | < 30 | ≥ 50 | < 30 | ≥ 50 | < 30 | ≥ 50 | < 30 | ≥ 50 | inhibition at 30 µM [1, 5]: ≥ 50%; inhibition at 30 µM (HepG2 (liver cancer)): ≥ 50%; inhibition at 30 µM (SW480 (colon cancer); [6]): ≥ 50%; inhibition at 30 µM [2]: ≥ 50%; inhibition at 30 µM [3]: ≥ 50%; inhibition at 30 µM [4, 8]: ≥ 50%; inhibition at 30 µM (HeLa (cervical cancer)): ≥ 50% |
| CC1=C(CC(=O)O)c2cc(C)ccc2/C1=C\c1ccc(CCCc2ccc(Cl)cc2)cc1 [B123, (Z)-2-(1-(4-(3-(4-Chlorophenyl)propyl)benzylidene)-2,5-dimethyl-1H-inden-3-yl)acetic acid] | < 30 | ≥ 50 | 30 to 50 | ≥ 50 | 30 to 50 | ≥ 50 | ≥ 50 | ≥ 50 | ≥ 50 | ≥ 50 | ≥ 50 | ≥ 50 | < 30 | ≥ 50 |  |
| COc1ccc(COCc2ccc(/C=C3/C(C)=C(CC(=O)O)c4cc(F)ccc43)cc2)cc1Cl [B108, (Z)-2-(1-(4-(((3-Chloro-4-methoxybenzyl)oxy)methyl)benzylidene)-5-fluoro-2-methyl-1H-inden-3-yl)acetic acid] | ≥ 50 | ≥ 50 | < 30 | ≥ 50 | < 30 | ≥ 50 | 30 to 50 | ≥ 50 | 30 to 50 | ≥ 50 | 30 to 50 | ≥ 50 | 30 to 50 | ≥ 50 |  |
| CC1=C(CC(=O)O)c2cc(Cl)ccc2/C1=C\c1ccc(CCc2ccccc2)cc1 [B158, (Z)-2-(5-Chloro-2-methyl-1-(4-phenethylbenzylidene)-1H-inden-3-yl)acetic acid] | < 30 | < 30 | < 30 | ≥ 50 | < 30 | < 30 | 30 to 50 | ≥ 50 | < 30 | < 30 | < 30 | < 30 | < 30 | ≥ 50 | inhibition at 30 µM ([1]; read-out: Antiproliferative activity in cancerous cells, MDA-MB-231): 30 to 50%; inhibition at 30 µM (SW480 (colon cancer); [7]): 30 to 50% |
